We go through two molecules from PMC5590646 (Biochemistry, 2015).

In one assay the test system is TFR-PR precursor. To be noted: cited from earlier work; for IC50: read-out: IC50 for inhibition of autoprocessing.
In assay [1] the target is PR (pseudo-wild-type mature HIV-1 protease). Conditions: cited from earlier work.
The subject of assay [2] is PR20. Kind of assay: DSC thermal stabilisation by inhibitor. Type of assay: binding, HIV-1. Conditions: for ΔTm of PR20 smaller than that of PR20^PR-123: DSC, PR20 vs PR20^PR-123.
The subject of assay [3] is PR20. Conditions: darunavir; cited from earlier work.
Assay [4] deals with PR20. Conditions: read-out: inhibition constant Ki; cited from earlier work.
Another assay has as its system PR. To be noted: cited from earlier work.
The test system of the next assay is TFR-PR20 precursor. Conditions: read-out: IC50 for inhibition of autoprocessing; cited from earlier work.

Read-outs that look alike come from different tables or passages of the source. Marks after values point to notes of the source that are not given here. A value given as a limit tells only on which side of the number the result lay.

`CC(C)CN(C[C@@H](O)[C@H](Cc1ccccc1)NC(=O)O[C@H]1CO[C@H]2OCC[C@H]21)S(=O)(=O)c1ccc(N)cc1` [darunavir]: the “concentration that completely inhibits autoprocessing” value in the assay with TFR-PR precursor was 1 to 3 µM. Also, in the assay with TFR-PR precursor, the IC50 is 1000 to 2000 nM. The inhibitory constant (Ki) was at most 0.01 nM in assay [1] (read-out: inhibition constant Ki, darunavir, ref refs and [50]); 41 ± 10 nM on PR20 [4]. Besides, the “ΔTm of PR20 smaller than that of PR20^PR-123” value in the assay with PR20 [2] was 9–11 °C. Further, the “ΔTm (with inhibitor), DSC” value in the assay on PR20 [3] is 5.3 ^b °C; in the assay with PR (darunavir), 22.4 ^c °C.
In the case of `CC(C)(C)NC(=O)[C@@H]1C[C@@H]2CCCC[C@@H]2CN1C[C@@H](O)[C@H](Cc1ccccc1)NC(=O)[C@H](CC(N)=O)NC(=O)c1ccc2ccccc2n1` [saquinavir], the “concentration that completely inhibits autoprocessing” value in the assay with TFR-PR precursor is 1 to 3 µM. The half-inhibitory concentration (IC50) with TFR-PR precursor is 1000 to 2000 nM; in the assay on TFR-PR20 precursor it was above 150000 nM. The inhibition constant Ki is 0.28 ± 0.02 nM in assay [1] (read-out: inhibition constant Ki, saquinavir) and 930 ± 93 nM on PR20 [4]. Besides, in the assay with PR20 [2], the “ΔTm of PR20 smaller than that of PR20^PR-123” value was 9–11 °C. Besides, the “ΔTm (with inhibitor), DSC” value with PR20 [2] (PR20, saquinavir, 2fold molar excess of inhibitor over dimer, buffer A) is 2.9 °C; with PR (saquinavir), 19.3 ^d °C.
